Laboratory results as given in patent US10781224B2, “Bis(oxymethyl)phosphinic acid and biogenic metal salts thereof as regulators of plant growth and development” (priority 2016, dated 2020).

Columns and labels:
rice (Diamant variety) = test: Rice seed treatment with BHMPA salts: germinating power; assay type: in vivo; details: for Length, root / Length, root, + % to control / Length, sprout / Length, sprout, + % to control / Mass, dry, root / Mass, dry, root, + % to control / Mass, dry, sprout / Mass, dry, sprout, + % to control / Mass, wet, root / Mass, wet, root, + % to control / Mass, wet, sprout / Mass, wet, sprout, + % to control: rice seed treatment
Summary of the method: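 Seeds (50 per Petri dish on two layers of filter paper) soaked 1 h in BHMPA or its Ca, Mg, Na, Co, Mn, Cu or Zn salts at 1·10^−6-1·10^−12%, with water controls. Germination energy read on day 4, germination on day 8 (wheat) or day 7 (rice, corn), as % means of four replicates. Germinating power taken as root and sprout length plus wet and dry mass per 100 seedlings.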

[1] = test system: corn (Krasnodar 385 MV variety); test: Corn seed treatment with BHMPA salts: germination energy and germination rate; assay type: in vivo
Summary of the method: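 Corn, winter wheat and rice seeds (50 per dish, on filter paper) were soaked for 1 h in BHMPA or its metal salts at 1·10^−6-1·10^−12%, with water as control. Germination energy was read on day 4 and germination rate on day 8 for wheat and day 7 for rice and corn, following GOST 12038-84, as the mean of four replicates.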

[2] = comparison with Melaphen (Table XXXIII), solution 1 · 10^−9%
[3] = experimental solution 1 · 10^−6%
[4] = experimental solution 1 · 10^−7%
[5] = experimental solution 1 · 10^−8%
[6] = experimental solution 1 · 10^−9%
[7] = experimental solution 1 · 10^−10%
[8] = experimental solution 1 · 10^−11%
[9] = experimental solution 1 · 10^−12%
[10] = rice, vs control, 1·10^−9% solution
[11] = 1·10^−9% solution, listed as Zn
[12] = comparative study vs Melaphen, 1·10^−8% solution

O=P([O-])(CO)CO.O=P([O-])(CO)CO.[Zn+2] [Zn-salt, Zinc BHMPA Salt]
optimum concentration for treating rice seeds before sowing (rice (Diamant variety); rice): 1·10^−9% | Length, root (rice (Diamant variety); [2]): 7.5 cm | Length, root, + % to control (rice (Diamant variety); [2]): 56% | Length, sprout (rice (Diamant variety); [2]): 4.8 cm | Length, sprout, + % to control (rice (Diamant variety); [2]): 48% | Mass, dry, root (rice (Diamant variety); [2]): 0.28 g/100 plantlings | Mass, dry, root, + % to control (rice (Diamant variety); [2]): 33% | Mass, dry, sprout (rice (Diamant variety); [2]): 0.32 g/100 plantlings | Mass, dry, sprout, + % to control (rice (Diamant variety); [2]): 28% | Mass, wet, root (rice (Diamant variety); [2]): 1.54 g/100 plantlings | Mass, wet, root, + % to control (rice (Diamant variety); [2]): 57% | Mass, wet, sprout (rice (Diamant variety); [2]): 2.57 g/100 plantlings | Mass, wet, sprout, + % to control (rice (Diamant variety); [2]): 70% | Length, root (rice (Diamant variety); [3]): 6.2 cm | Length, root, + % to control (rice (Diamant variety); [3]): 15% | Length, sprout (rice (Diamant variety); [3]): 2.6 cm | Length, sprout, + % to control (rice (Diamant variety); [3]): 8% | Mass, dry, root (rice (Diamant variety); [3]): 0.19 g/100 plantlings | Mass, dry, root, + % to control (rice (Diamant variety); [3]): 12% | Mass, dry, sprout (rice (Diamant variety); [3]): 0.23 g/100 plantlings | Mass, dry, sprout, + % to control (rice (Diamant variety); [3]): 4.5% | Mass, wet, root (rice (Diamant variety); [3]): 1.04 g/100 plantlings | Mass, wet, root, + % to control (rice (Diamant variety); [3]): 24% | Mass, wet, sprout (rice (Diamant variety); [3]): 1.81 g/100 plantlings | Mass, wet, sprout, + % to control (rice (Diamant variety); [3]): 24% | Length, root (rice (Diamant variety); [4]): 6.6 cm | Length, root, + % to control (rice (Diamant variety); [4]): 22% | Length, sprout (rice (Diamant variety); [4]): 2.8 cm | Length, sprout, + % to control (rice (Diamant variety); [4]): 17% | Mass, dry, root (rice (Diamant variety); [4]): 0.22 g/100 plantlings | Mass, dry, root, + % to control (rice (Diamant variety); [4]): 29% | Mass, dry, sprout (rice (Diamant variety); [4]): 0.27 g/100 plantlings | Mass, dry, sprout, + % to control (rice (Diamant variety); [4]): 23% | Mass, wet, root (rice (Diamant variety); [4]): 1.21 g/100 plantlings | Mass, wet, root, + % to control (rice (Diamant variety); [4]): 44% | Mass, wet, sprout (rice (Diamant variety); [4]): 2.10 g/100 plantlings | Mass, wet, sprout, + % to control (rice (Diamant variety); [4]): 44% | Length, root (rice (Diamant variety); [5]): 6.8 cm | Length, root, + % to control (rice (Diamant variety); [5]): 26% | Length, sprout (rice (Diamant variety); [5]): 3.1 cm | Length, sprout, + % to control (rice (Diamant variety); [5]): 29% | Mass, dry, root (rice (Diamant variety); [5]): 0.24 g/100 plantlings | Mass, dry, root, + % to control (rice (Diamant variety); [5]): 41% | Mass, dry, sprout (rice (Diamant variety); [5]): 0.28 g/100 plantlings | Mass, dry, sprout, + % to control (rice (Diamant variety); [5]): 27% | Mass, wet, root (rice (Diamant variety); [5]): 1.29 g/100 plantlings | Mass, wet, root, + % to control (rice (Diamant variety); [5]): 53.5% | Mass, wet, sprout (rice (Diamant variety); [5]): 2.27 g/100 plantlings | Mass, wet, sprout, + % to control (rice (Diamant variety); [5]): 55% | Length, root (rice (Diamant variety); [6]): 7.0 cm | Length, root, + % to control (rice (Diamant variety); [6]): 30% | Length, sprout (rice (Diamant variety); [6]): 3.6 cm | Length, sprout, + % to control (rice (Diamant variety); [6]): 50% | Mass, dry, root (rice (Diamant variety); [6]): 0.27 g/100 plantlings | Mass, dry, root, + % to control (rice (Diamant variety); [6]): 59% | Mass, dry, sprout (rice (Diamant variety); [6]): 0.33 g/100 plantlings | Mass, dry, sprout, + % to control (rice (Diamant variety); [6]): 50% | Mass, wet, root (rice (Diamant variety); [6]): 1.32 g/100 plantlings | Mass, wet, root, + % to control (rice (Diamant variety); [6]): 57% | Mass, wet, sprout (rice (Diamant variety); [6]): 2.31 g/100 plantlings | Mass, wet, sprout, + % to control (rice (Diamant variety); [6]): 58% | Length, root (rice (Diamant variety); [7]): 6.9 cm | Length, root, + % to control (rice (Diamant variety); [7]): 28% | Length, sprout (rice (Diamant variety); [7]): 3.2 cm | Length, sprout, + % to control (rice (Diamant variety); [7]): 33% | Mass, dry, root (rice (Diamant variety); [7]): 0.25 g/100 plantlings | Mass, dry, root, + % to control (rice (Diamant variety); [7]): 47% | Mass, dry, sprout (rice (Diamant variety); [7]): 0.31 g/100 plantlings | Mass, dry, sprout, + % to control (rice (Diamant variety); [7]): 41% | Mass, wet, root (rice (Diamant variety); [7]): 1.26 g/100 plantlings | Mass, wet, root, + % to control (rice (Diamant variety); [7]): 50% | Mass, wet, sprout (rice (Diamant variety); [7]): 2.17 g/100 plantlings | Mass, wet, sprout, + % to control (rice (Diamant variety); [7]): 49% | Length, root (rice (Diamant variety); [8]): 6.7 cm | Length, root, + % to control (rice (Diamant variety); [8]): 24% | Length, sprout (rice (Diamant variety); [8]): 2.8 cm | Length, sprout, + % to control (rice (Diamant variety); [8]): 17% | Mass, dry, root (rice (Diamant variety); [8]): 0.22 g/100 plantlings | Mass, dry, root, + % to control (rice (Diamant variety); [8]): 29% | Mass, dry, sprout (rice (Diamant variety); [8]): 0.29 g/100 plantlings | Mass, dry, sprout, + % to control (rice (Diamant variety); [8]): 32% | Mass, wet, root (rice (Diamant variety); [8]): 1.19 g/100 plantlings | Mass, wet, root, + % to control (rice (Diamant variety); [8]): 42% | Mass, wet, sprout (rice (Diamant variety); [8]): 2.09 g/100 plantlings | Mass, wet, sprout, + % to control (rice (Diamant variety); [8]): 43% | Length, root (rice (Diamant variety); [9]): 5.9 cm | Length, root, + % to control (rice (Diamant variety); [9]): 9% | Length, sprout (rice (Diamant variety); [9]): 2.7 cm | Length, sprout, + % to control (rice (Diamant variety); [9]): 12.5% | Mass, dry, root (rice (Diamant variety); [9]): 0.19 g/100 plantlings | Mass, dry, root, + % to control (rice (Diamant variety); [9]): 12% | Mass, dry, sprout (rice (Diamant variety); [9]): 0.25 g/100 plantlings | Mass, dry, sprout, + % to control (rice (Diamant variety); [9]): 14% | Mass, wet, root (rice (Diamant variety); [9]): 1.05 g/100 plantlings | Mass, wet, root, + % to control (rice (Diamant variety); [9]): 25% | Mass, wet, sprout (rice (Diamant variety); [9]): 1.70 g/100 plantlings | Mass, wet, sprout, + % to control (rice (Diamant variety); [9]): 16% | dry mass of the roots increased by (rice (Diamant variety); [10]): 59% | dry mass of the sprouts increased by (rice (Diamant variety); [10]): 50% | length of the root increased by (rice (Diamant variety); [10]): 30% | length of the sprout increased by (rice (Diamant variety); [10]): 50% | wet mass of the roots increased by (rice (Diamant variety); [10]): 57% | wet mass of the sprouts increased by (rice (Diamant variety); [10]): 58% | Germination energy ([1]; 1·10^−6% solution): 77.7% | Germination rate ([1]; 1·10^−6% solution): 80.0% | Germination energy ([1]; 1·10^−7% solution): 84.0% | Germination rate ([1]; 1·10^−7% solution): 86.7% | Germination energy ([1]; 1·10^−8% solution): 88.3% | Germination rate ([1]; 1·10^−8% solution): 90.8% | Germination energy ([1]; 1·10^−9% solution): 88.3% | Germination rate ([1]; 1·10^−9% solution): 90.8% | Germination energy [1, 11]: 84.2% | Germination rate [1, 11]: 86.7% | Germination energy ([1]; 1·10^−10% solution): 82.3% | Germination rate ([1]; 1·10^−10% solution): 85.0% | Germination energy ([1]; 1·10^−11% solution): 80.7% | Germination rate ([1]; 1·10^−11% solution): 83.3% | Germination energy ([1]; 1·10^−12% solution): 79.0% | Germination rate ([1]; 1·10^−12% solution): 81.7% | Germination energy [1, 12]: 88.0% | Germination rate [1, 12]: 95.7%
